# Assay results reported in patent publication US20260306463A1, “SIK INHIBITORS TO TREAT CHRONIC KIDNEY DISEASE” (The General Hospital Corporation, priority 2023, published 2026).
# “Also recorded” adds a separate entry of the source. Like-named read-outs stand apart in the source and are kept apart here.
# Tests used:
# [1] = tested on: mice with adenine-induced chronic kidney disease; experiment: adenine diet-induced CKD in mice, 6 weeks: body weight, renal function, mineral metabolism, histology; format: in vivo, mouse (female CD1)
# Protocol: (§1) FIGS. 1A-1E. […] (A) Study design: Female CD1 mice (n=8/group) were treated with control or 0.2% adenine diet starting at 6 weeks of age along with vehicle or SK-124 (40 mg/kg) treatment by oral gavage once daily. Bottom: body weight of mice in the indicated treatment groups. […] (B, C) After 6 weeks of treatment, the indicated analytes were measured in fasting serum or urine. […] (D) H+E-stained kidney sections were assessed on a blinded basis by a pathologist for tubulointerstitial damage. (E) Whole kidney RNA from the indicated groups was analyzed by RT-qPCR for the indicated proximal tubule marker gene. For all panels in all figures, 1-way ANOVA was performed with Dunnett's posthoc analysis to analyze differences between treatment groups, p values less than 0.05 are shown in graph.
# (§2) 7-week-old female CD1 mice were obtained from Charles River Laboratories (Wilmington, MA) and were fed on 0.2% adenine containing diet (TD.130900; 0.2% Adenine, 0.9% Phosphate, 0.5% Calcium; Envigo) or control diet (TD. 96348) for 6 or 8 weeks to induce chronic kidney disease (CKD). Mice were oral gavaged with 40 mg/kg SK-124, or intraperitonially injected with 80 μg/kg PTH, or treated with vehicle 5 days a week for the duration of the special diet.
# (§3) For studies with Ubiquitin-Cre^ERt2; Sik2^ff; Sik3^ff mice (JAX #007001 for Ubiquitin-Cre^ERt2: RRID:MGL:5905012 for Sik2 foxed mice; and Sik3^tmla(EUCOMM)Hmgu mice (RRID:MGI:5085429) bred to PGK1 FLPo mice (JAX #011065) in order to generate Sik3 foxed mice), tamoxifen was injected (1 mg, IP, Q48 hours, 3 injections total) in all animals including Cre-negative control littermates housed in cages with Pure-o′Cel bedding at 5 weeks of age. Mice were then fed on 0.2% adenine diet from 6 weeks to 9 weeks of age. Mice were fasted for 6 hours and treated with SK-124 and PTH 4 hours and 2 hours before the sacrifice. Blood and spot urine samples were collected by cheek pouch bleeding and by pipetting urine collected on hydrophobic sand (Labsand; Braintree, MA). Kidneys were immediately snap-frozen in liquid nitrogen for TRIzol (Life Technologies)-Chloroform (Fischer Scientific) based RNA isolation or protein isolation, or fixed in 10% formalin at 4C for 24 hrs for histology. All serum and urine measurements were performed using commercial bioassay detection reagents listed in Table 1, following the manufacturers' instructions. Urine protein levels were measured by Bradford assay and normalized to urine creatinine.
# [2] = tested on: intact proximal tubular epithelial genes; experiment: whole kidney RNA RT-qPCR of proximal tubule marker genes, adenine CKD mice; format: in vivo, mouse
# Protocol: as §1, §2, §3
# cDNA was prepared using Primescript RT kit (Takara Inc), with 750 ng RNA per reaction. […] Hmbs was used as a control housekeeping gene for mouse samples, and B-Actin was used for organoids, relative expression was calculated (2^-deltaCT method) and compared to the mean of control group if necessary. […]
# SIK2/SIK3 = settings: reference to WO 2022/031928, Sato et al., Yoon et al., cited from earlier work
# [3] = 0.2% adenine diet, 6 weeks, SK-124 40 mg/kg oral
# [4] = whole kidney RNA, RT-qPCR, 6 weeks adenine diet
smiles,measurement,setting,value
"CCc1nnc(-c2c(OC)cc(-c3cnc4cc(-c5cnn(C)c5)ccn34)cc2OC)o1 [SK-124, 2-[2,6-Dimethoxy-4-[7-(1-methylpyrazol-4-yl)imidazo[1,2-a]pyridin-3-yl]phenyl]-5-ethyl-1,3,4-oxadiazole]",BUN,[1]; [3],reduced
same,creatinine,[1]; [3],reduced
same,cystatin C,[1]; [3],reduced
same,hyperphosphatemia,[1]; [3],improved
same,increased FGF-23,[1]; [3],improved
same,proteinuria,[1]; [3],reduced
same,secondary hyperparathyroidism,[1]; [3],improved
same,body weight,"[1]; 0.2% adenine diet, 6 weeks, SK-124 40 mg/kg oral gavage once daily, 40 mg/kg",CKD-induced weight loss is prevented; also recorded: improved body weight
same,renal (kidney) function and overall health,"[1]; 0.2% adenine diet, 6 weeks, SK-124 40 mg/kg oral, 40 mg/kg",improves renal function; also recorded: dramatic improvements in renal function and overall health; also recorded: restores kidney function
same,tubule-interstitial damage,"[1]; H+E-stained kidney sections, blinded pathologist",reduced tubule-interstitial damage
same,CKD-induced changes of analytes in fasting serum or urine,"[1]; after 6 weeks of treatment, SK-124 40 mg/kg oral",All CKD-induced changes were prevented
same,epithelial cell integrity,[2]; adenine-induced CKD,preserves epithelial cell integrity
same,Atpla1 expression,[2]; [4],restored expression
same,Lrp2 expression,[2]; [4],restored expression
same,Slc34a1 expression,[2]; [4],restored expression
same,SIK isoform selectivity,SIK2/SIK3,specific SIK2/SIK3 inhibitor; also recorded: SIK2/SIK3-selective inhibitor
same,SIK isoform selectivity,SIK2/SIK3; listed as SIK-124,selective SIK2/SIK3 inhibitor
